{"source": "the supplement of paper PMC10307832", "test_in_all_cases": "relative viability (nuclei count vs DMSO), 5 days (fraction); higher = more cells survive", "key": {"ABC-1": {"system": "ABC-1", "outline": "(§1)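 Lung cancer cell lines were seeded in 1536-well plates and dosed by pin tool the next day, with either a single drug or a fixed anchor-drug dose combined with five library-drug doses (not always all listed) spaced in √10 steps. Five days later, one step fixed the cells and stained their nuclei (final 0.05% Triton X-100, 1% formaldehyde, 1 ug/ml Hoechst), and nuclei were counted on 4× images. Relative viability is the nuclei count in treated wells divided by the count in vehicle wells, and each value is the median of duplicate plates.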"}, "HCC-827": {"system": "HCC-827", "outline": "as §1"}, "NCI-H1666": {"system": "NCI-H1666", "outline": "as §1"}, "NCI-H1975": {"system": "NCI-H1975", "outline": "as §1"}, "NCI-H322M": {"system": "NCI-H322M", "outline": "as §1"}, "NCI-H2170": {"system": "NCI-H2170", "outline": "as §1"}, "BEN": {"system": "BEN", "outline": "as §1"}, "LXF-289": {"system": "LXF-289", "outline": "as §1"}, "HOP-62": {"system": "HOP-62", "outline": "as §1"}, "NCI-H358": {"system": "NCI-H358", "outline": "as §1"}, "EPLC-272H": {"system": "EPLC-272H", "outline": "as §1"}, "NCI-H2405": {"system": "NCI-H2405", "outline": "as §1"}, "UMC-11": {"system": "UMC-11", "outline": "as §1"}, "NCI-H727": {"system": "NCI-H727", "outline": "as §1"}, "NCI-H520": {"system": "NCI-H520", "outline": "as §1"}, "NCI-H3122": {"system": "NCI-H3122", "outline": "as §1"}, "EKVX": {"system": "EKVX", "outline": "as §1"}, "NCI-H23": {"system": "NCI-H23", "outline": "as §1"}, "SK-MES-1": {"system": "SK-MES-1", "outline": "as §1"}, "LU99A": {"system": "LU99A", "outline": "as §1"}, "NCI-H838": {"system": "NCI-H838", "outline": "as §1"}}, "data": [{"smiles": "COCC1(CO)C(=O)C2CCN1CC2", "note": "(stereo not drawn) [PRIMA-1MET] + O=C(c1cc(Cc2n[nH]c(=O)c3ccccc23)ccc1F)N1CCN(C(=O)C2CC2)CC1 [Olaparib] (partner 8 µM)", "values": [{"measurement": "relative viability", "setting": "ABC-1; first compound 0.2 µM", "value": 0.993}, {"measurement": "relative viability", "setting": "ABC-1; first compound 2 µM", "value": 0.664}, {"measurement": "relative viability", "setting": "ABC-1; first compound 6.325 µM", "value": 0.662}, {"measurement": "relative viability", "setting": "ABC-1; first compound 20 µM", "value": 0.616}, {"measurement": "relative viability", "setting": "HCC-827; first compound 0.2 µM", "value": 0.675}, {"measurement": "relative viability", "setting": "HCC-827; first compound 0.6325 µM", "value": 0.675}, {"measurement": "relative viability", "setting": "HCC-827; first compound 2 µM", "value": 0.587}, {"measurement": "relative viability", "setting": "HCC-827; first compound 6.325 µM", "value": 0.684}, {"measurement": "relative viability", "setting": "HCC-827; first compound 20 µM", "value": 0.627}, {"measurement": "relative viability", "setting": "NCI-H1666; first compound 0.2 µM", "value": 0.773}, {"measurement": "relative viability", "setting": "NCI-H1666; first compound 0.6325 µM", "value": 0.753}, {"measurement": "relative viability", "setting": "NCI-H1666; first compound 2 µM", "value": 0.801}, {"measurement": "relative viability", "setting": "NCI-H1666; first compound 6.325 µM", "value": 0.735}, {"measurement": "relative viability", "setting": "NCI-H1666; first compound 20 µM", "value": 0.739}, {"measurement": "relative viability", "setting": "NCI-H1975; first compound 0.2 µM", "value": 1.01}, {"measurement": "relative viability", "setting": "NCI-H1975; first compound 0.6325 µM", "value": 0.699}, {"measurement": "relative viability", "setting": "NCI-H1975; first compound 2 µM", "value": 0.775}, {"measurement": "relative viability", "setting": "NCI-H1975; first compound 6.325 µM", "value": 0.847}, {"measurement": "relative viability", "setting": "NCI-H1975; first compound 20 µM", "value": 0.616}, {"measurement": "relative viability", "setting": "NCI-H322M; first compound 0.2 µM", "value": 0.851}, {"measurement": "relative viability", "setting": "NCI-H322M; first compound 0.6325 µM", "value": 0.668}, {"measurement": "relative viability", "setting": "NCI-H322M; first compound 6.325 µM", "value": 0.772}, {"measurement": "relative viability", "setting": "NCI-H322M; first compound 20 µM", "value": 0.568}, {"measurement": "relative viability", "setting": "NCI-H2170; first compound 0.2 µM", "value": 0.608}, {"measurement": "relative viability", "setting": "NCI-H2170; first compound 0.6325 µM", "value": 0.539}, {"measurement": "relative viability", "setting": "NCI-H2170; first compound 2 µM", "value": 0.649}, {"measurement": "relative viability", "setting": "NCI-H2170; first compound 6.325 µM", "value": 0.684}, {"measurement": "relative viability", "setting": "NCI-H2170; first compound 20 µM", "value": 0.622}, {"measurement": "relative viability", "setting": "BEN; first compound 0.2 µM", "value": 1.19}, {"measurement": "relative viability", "setting": "BEN; first compound 0.6325 µM", "value": 1.11}, {"measurement": "relative viability", "setting": "BEN; first compound 6.325 µM", "value": 1.12}, {"measurement": "relative viability", "setting": "BEN; first compound 20 µM", "value": 1.07}, {"measurement": "relative viability", "setting": "LXF-289; first compound 0.2 µM", "value": 1.14}, {"measurement": "relative viability", "setting": "LXF-289; first compound 0.6325 µM", "value": 1.03}, {"measurement": "relative viability", "setting": "LXF-289; first compound 2 µM", "value": 1.06}, {"measurement": "relative viability", "setting": "LXF-289; first compound 6.325 µM", "value": 1.06}, {"measurement": "relative viability", "setting": "LXF-289; first compound 20 µM", "value": 0.999}, {"measurement": "relative viability", "setting": "HOP-62; first compound 0.2 µM", "value": 0.489}, {"measurement": "relative viability", "setting": "HOP-62; first compound 0.6325 µM", "value": 0.388}, {"measurement": "relative viability", "setting": "HOP-62; first compound 2 µM", "value": 0.51}, {"measurement": "relative viability", "setting": "HOP-62; first compound 6.325 µM", "value": 0.428}, {"measurement": "relative viability", "setting": "HOP-62; first compound 20 µM", "value": 0.0328}, {"measurement": "relative viability", "setting": "NCI-H358; first compound 0.2 µM", "value": 0.623}, {"measurement": "relative viability", "setting": "NCI-H358; first compound 0.6325 µM", "value": 0.555}, {"measurement": "relative viability", "setting": "NCI-H358; first compound 2 µM", "value": 0.601}, {"measurement": "relative viability", "setting": "NCI-H358; first compound 6.325 µM", "value": 0.635}, {"measurement": "relative viability", "setting": "NCI-H358; first compound 20 µM", "value": 0.553}, {"measurement": "relative viability", "setting": "EPLC-272H; first compound 0.2 µM", "value": 0.655}, {"measurement": "relative viability", "setting": "EPLC-272H; first compound 0.6325 µM", "value": 0.89}, {"measurement": "relative viability", "setting": "EPLC-272H; first compound 2 µM", "value": 0.911}, {"measurement": "relative viability", "setting": "EPLC-272H; first compound 6.325 µM", "value": 0.694}, {"measurement": "relative viability", "setting": "EPLC-272H; first compound 20 µM", "value": 0.0737}, {"measurement": "relative viability", "setting": "NCI-H2405; first compound 0.2 µM", "value": 0.947}, {"measurement": "relative viability", "setting": "NCI-H2405; first compound 0.6325 µM", "value": 0.986}, {"measurement": "relative viability", "setting": "NCI-H2405; first compound 6.325 µM", "value": 0.88}, {"measurement": "relative viability", "setting": "NCI-H2405; first compound 20 µM", "value": 0.167}, {"measurement": "relative viability", "setting": "UMC-11; first compound 0.2 µM", "value": 0.526}, {"measurement": "relative viability", "setting": "UMC-11; first compound 0.6325 µM", "value": 0.312}, {"measurement": "relative viability", "setting": "UMC-11; first compound 2 µM", "value": 0.376}, {"measurement": "relative viability", "setting": "UMC-11; first compound 6.325 µM", "value": 0.417}, {"measurement": "relative viability", "setting": "UMC-11; first compound 20 µM", "value": 0.406}, {"measurement": "relative viability", "setting": "NCI-H727; first compound 0.2 µM", "value": 0.6}, {"measurement": "relative viability", "setting": "NCI-H727; first compound 0.6325 µM", "value": 0.676}, {"measurement": "relative viability", "setting": "NCI-H727; first compound 6.325 µM", "value": 0.527}, {"measurement": "relative viability", "setting": "NCI-H727; first compound 20 µM", "value": 0.47}, {"measurement": "relative viability", "setting": "NCI-H520; first compound 0.2 µM", "value": 0.371}, {"measurement": "relative viability", "setting": "NCI-H520; first compound 2 µM", "value": 0.38}, {"measurement": "relative viability", "setting": "NCI-H520; first compound 6.325 µM", "value": 0.318}, {"measurement": "relative viability", "setting": "NCI-H520; first compound 20 µM", "value": 0.144}, {"measurement": "relative viability", "setting": "NCI-H3122; first compound 0.2 µM", "value": 0.661}, {"measurement": "relative viability", "setting": "NCI-H3122; first compound 0.6325 µM", "value": 0.55}, {"measurement": "relative viability", "setting": "NCI-H3122; first compound 2 µM", "value": 0.614}, {"measurement": "relative viability", "setting": "NCI-H3122; first compound 6.325 µM", "value": 0.698}, {"measurement": "relative viability", "setting": "NCI-H3122; first compound 20 µM", "value": 0.621}, {"measurement": "relative viability", "setting": "EKVX; first compound 0.2 µM", "value": 1.01}, {"measurement": "relative viability", "setting": "EKVX; first compound 2 µM", "value": 0.694}, {"measurement": "relative viability", "setting": "EKVX; first compound 6.325 µM", "value": 0.825}, {"measurement": "relative viability", "setting": "EKVX; first compound 20 µM", "value": 0.403}, {"measurement": "relative viability", "setting": "NCI-H23; first compound 0.2 µM", "value": 0.313}, {"measurement": "relative viability", "setting": "NCI-H23; first compound 0.6325 µM", "value": 0.291}, {"measurement": "relative viability", "setting": "NCI-H23; first compound 2 µM", "value": 0.287}, {"measurement": "relative viability", "setting": "NCI-H23; first compound 6.325 µM", "value": 0.27}, {"measurement": "relative viability", "setting": "NCI-H23; first compound 20 µM", "value": 0.082}, {"measurement": "relative viability", "setting": "SK-MES-1; first compound 0.2 µM", "value": 0.852}, {"measurement": "relative viability", "setting": "SK-MES-1; first compound 0.6325 µM", "value": 0.66}, {"measurement": "relative viability", "setting": "SK-MES-1; first compound 2 µM", "value": 0.779}, {"measurement": "relative viability", "setting": "SK-MES-1; first compound 6.325 µM", "value": 0.622}, {"measurement": "relative viability", "setting": "SK-MES-1; first compound 20 µM", "value": 0.622}, {"measurement": "relative viability", "setting": "LU99A; first compound 0.2 µM", "value": 0.312}, {"measurement": "relative viability", "setting": "LU99A; first compound 0.6325 µM", "value": 0.24}, {"measurement": "relative viability", "setting": "LU99A; first compound 2 µM", "value": 0.263}, {"measurement": "relative viability", "setting": "LU99A; first compound 6.325 µM", "value": 0.22}, {"measurement": "relative viability", "setting": "LU99A; first compound 20 µM", "value": 0.0441}, {"measurement": "relative viability", "setting": "NCI-H838; first compound 0.2 µM", "value": 0.788}, {"measurement": "relative viability", "setting": "NCI-H838; first compound 0.6325 µM", "value": 0.76}, {"measurement": "relative viability", "setting": "NCI-H838; first compound 2 µM", "value": 0.809}, {"measurement": "relative viability", "setting": "NCI-H838; first compound 6.325 µM", "value": 0.789}, {"measurement": "relative viability", "setting": "NCI-H838; first compound 20 µM", "value": 0.579}]}]}
